Measurements: article PMC6274539, “Photoactivatable Caged Prodrugs of VEGFR-2 Kinase Inhibitors” (Molecules, 2016)

Assays:
Assay in all cases: kinase profiling, radioactive filter binding assay
Assay type in all cases: biochemical
[1] = target: CDK2-Cyclin A (Homo sapiens, UniProt P24941); conditions: 0.1 µM compound, assay duplicates; read-out: residual activity of CDK2-Cyclin A, mean percentage activity
Procedure: (§1) The used method was a radioactive filter binding assay using ^33P ATP, for details see references. The substances were dissolved in DMSO at tested concentration of 0.1 µM. The mean percentage residual kinase activity and standard deviations of assay duplicates were determined. Analyses were performed by the International Center for Kinase Profiling at the University of Dundee, UK.

[2] = target: CHK1 (Homo sapiens, UniProt O14757); conditions: 0.1 µM compound, assay duplicates; read-out: residual activity of CHK1, mean percentage activity
Procedure: as §1

[3] = target: DYRK1A (Homo sapiens, UniProt Q13627); conditions: 0.1 µM compound, assay duplicates; read-out: residual activity of DYRK1A, mean percentage activity
Procedure: as §1

[4] = target: EFK2 (Homo sapiens, UniProt O00418); conditions: 0.1 µM compound, assay duplicates; read-out: residual activity of EFK2, mean percentage activity
Procedure: as §1

[5] = target: ERK2 (Homo sapiens, UniProt P28482); conditions: 0.1 µM compound, assay duplicates; read-out: residual activity of ERK2, mean percentage activity
Procedure: as §1

[6] = target: FGF-R1 (Homo sapiens, UniProt P11362); conditions: 0.1 µM compound, assay duplicates; read-out: residual activity of FGF-R1, mean percentage activity
Procedure: as §1

[7] = target: IKK epsilon (14231) (Homo sapiens, UniProt Q14164); conditions: 0.1 µM compound, assay duplicates; read-out: residual activity of IKK epsilon (14231), mean percentage activity
Procedure: as §1

[8] = target: IKKe (Homo sapiens, UniProt Q14164); conditions: 0.1 µM compound, assay duplicates; read-out: residual activity of IKKe, mean percentage activity
Procedure: as §1

[9] = target: JNK1 (Homo sapiens, UniProt P45983); conditions: 0.1 µM compound, assay duplicates; read-out: residual activity of JNK1, mean percentage activity
Procedure: as §1

[10] = target: MELK (Homo sapiens, UniProt Q14680); conditions: 0.1 µM compound, assay duplicates; read-out: residual activity of MELK, mean percentage activity
Chain of MELK (Q14680 whole entry): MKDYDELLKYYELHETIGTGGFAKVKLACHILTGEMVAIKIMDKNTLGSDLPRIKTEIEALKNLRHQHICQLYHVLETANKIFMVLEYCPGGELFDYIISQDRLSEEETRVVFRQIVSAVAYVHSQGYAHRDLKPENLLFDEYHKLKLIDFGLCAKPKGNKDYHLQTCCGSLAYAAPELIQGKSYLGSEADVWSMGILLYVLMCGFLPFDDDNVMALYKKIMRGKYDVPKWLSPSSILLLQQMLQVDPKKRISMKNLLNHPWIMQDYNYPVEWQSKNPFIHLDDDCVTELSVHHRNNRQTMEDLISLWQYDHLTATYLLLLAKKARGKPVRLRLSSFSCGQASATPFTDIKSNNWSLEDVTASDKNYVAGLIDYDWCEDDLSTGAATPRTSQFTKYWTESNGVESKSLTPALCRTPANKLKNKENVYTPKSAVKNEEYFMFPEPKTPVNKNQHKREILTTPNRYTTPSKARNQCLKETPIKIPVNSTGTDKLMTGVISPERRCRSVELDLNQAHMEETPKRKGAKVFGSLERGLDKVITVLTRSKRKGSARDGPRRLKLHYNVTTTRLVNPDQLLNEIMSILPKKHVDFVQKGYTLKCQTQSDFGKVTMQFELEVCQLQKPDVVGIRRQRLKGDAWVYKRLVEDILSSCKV
Procedure: as §1

[11] = target: MKK1 (Homo sapiens, UniProt Q02750); conditions: 0.1 µM compound, assay duplicates; read-out: residual activity of MKK1, mean percentage activity
Procedure: as §1

[12] = target: MNK1 (Homo sapiens, UniProt Q9BUB5); conditions: 0.1 µM compound, assay duplicates; read-out: residual activity of MNK1, mean percentage activity
Chain of MNK1 (Q9BUB5 whole entry): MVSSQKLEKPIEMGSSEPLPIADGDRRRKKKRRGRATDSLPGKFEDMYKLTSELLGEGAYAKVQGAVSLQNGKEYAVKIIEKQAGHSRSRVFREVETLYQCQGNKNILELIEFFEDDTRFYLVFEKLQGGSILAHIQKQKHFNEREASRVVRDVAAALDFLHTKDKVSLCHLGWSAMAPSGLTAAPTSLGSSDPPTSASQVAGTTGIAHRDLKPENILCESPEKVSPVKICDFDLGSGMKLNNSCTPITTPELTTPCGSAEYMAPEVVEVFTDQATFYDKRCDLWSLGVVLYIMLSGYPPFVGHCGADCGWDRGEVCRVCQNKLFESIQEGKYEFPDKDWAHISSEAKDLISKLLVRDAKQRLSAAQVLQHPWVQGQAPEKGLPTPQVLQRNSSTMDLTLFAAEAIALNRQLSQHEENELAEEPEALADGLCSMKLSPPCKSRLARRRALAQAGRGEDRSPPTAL
Procedure: as §1

[13] = target: MNK2 (Homo sapiens, UniProt Q9HBH9); conditions: 0.1 µM compound, assay duplicates; read-out: residual activity of MNK2, mean percentage activity
Procedure: as §1

[14] = target: MSK1 (Homo sapiens, UniProt O75582); conditions: 0.1 µM compound, assay duplicates; read-out: residual activity of MSK1, mean percentage activity
Procedure: as §1

[15] = target: MST2 (Homo sapiens, UniProt Q13188); conditions: 0.1 µM compound, assay duplicates; read-out: residual activity of MST2, mean percentage activity
Procedure: as §1

[16] = target: MST4 (Homo sapiens, UniProt Q9P289); conditions: 0.1 µM compound, assay duplicates; read-out: residual activity of MST4, mean percentage activity
Chain of MST4 (Q9P289 whole entry): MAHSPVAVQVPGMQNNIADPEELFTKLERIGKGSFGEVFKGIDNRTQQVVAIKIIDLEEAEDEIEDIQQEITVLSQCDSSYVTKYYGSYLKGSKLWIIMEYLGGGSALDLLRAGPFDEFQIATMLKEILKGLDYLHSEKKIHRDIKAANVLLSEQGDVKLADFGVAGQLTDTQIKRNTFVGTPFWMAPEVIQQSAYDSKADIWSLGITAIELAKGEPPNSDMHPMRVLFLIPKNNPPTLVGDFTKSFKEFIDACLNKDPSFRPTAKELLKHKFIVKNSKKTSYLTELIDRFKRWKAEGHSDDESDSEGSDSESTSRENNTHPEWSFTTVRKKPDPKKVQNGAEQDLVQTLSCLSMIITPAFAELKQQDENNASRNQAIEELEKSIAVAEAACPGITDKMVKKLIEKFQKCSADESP
Procedure: as §1

[17] = target: NEK2a (Homo sapiens, UniProt P51955); conditions: 0.1 µM compound, assay duplicates; read-out: residual activity of NEK2a, mean percentage activity
Procedure: as §1

[18] = target: NEK6 (Homo sapiens, UniProt Q9HC98); conditions: 0.1 µM compound, assay duplicates; read-out: residual activity of NEK6, mean percentage activity
Procedure: as §1

[19] = target: P38b MAPK (Homo sapiens, UniProt Q15759); conditions: 0.1 µM compound, assay duplicates; read-out: residual activity of P38b MAPK, mean percentage activity
Chain of P38b MAPK (Q15759 whole entry): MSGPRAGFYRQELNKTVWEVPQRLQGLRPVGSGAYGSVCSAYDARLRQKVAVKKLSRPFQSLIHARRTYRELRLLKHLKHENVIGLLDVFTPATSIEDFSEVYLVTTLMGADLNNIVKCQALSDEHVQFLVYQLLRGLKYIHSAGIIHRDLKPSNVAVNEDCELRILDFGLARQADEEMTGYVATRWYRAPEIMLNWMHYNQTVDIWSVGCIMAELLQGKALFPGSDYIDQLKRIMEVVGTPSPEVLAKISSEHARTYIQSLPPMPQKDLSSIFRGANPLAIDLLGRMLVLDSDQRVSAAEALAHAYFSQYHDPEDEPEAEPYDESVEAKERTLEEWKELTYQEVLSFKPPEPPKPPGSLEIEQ
Procedure: as §1

[20] = target: PAK5 (Homo sapiens, UniProt Q9P286); conditions: 0.1 µM compound, assay duplicates; read-out: residual activity of PAK5, mean percentage activity
Chain of PAK5 (Q9P286 whole entry): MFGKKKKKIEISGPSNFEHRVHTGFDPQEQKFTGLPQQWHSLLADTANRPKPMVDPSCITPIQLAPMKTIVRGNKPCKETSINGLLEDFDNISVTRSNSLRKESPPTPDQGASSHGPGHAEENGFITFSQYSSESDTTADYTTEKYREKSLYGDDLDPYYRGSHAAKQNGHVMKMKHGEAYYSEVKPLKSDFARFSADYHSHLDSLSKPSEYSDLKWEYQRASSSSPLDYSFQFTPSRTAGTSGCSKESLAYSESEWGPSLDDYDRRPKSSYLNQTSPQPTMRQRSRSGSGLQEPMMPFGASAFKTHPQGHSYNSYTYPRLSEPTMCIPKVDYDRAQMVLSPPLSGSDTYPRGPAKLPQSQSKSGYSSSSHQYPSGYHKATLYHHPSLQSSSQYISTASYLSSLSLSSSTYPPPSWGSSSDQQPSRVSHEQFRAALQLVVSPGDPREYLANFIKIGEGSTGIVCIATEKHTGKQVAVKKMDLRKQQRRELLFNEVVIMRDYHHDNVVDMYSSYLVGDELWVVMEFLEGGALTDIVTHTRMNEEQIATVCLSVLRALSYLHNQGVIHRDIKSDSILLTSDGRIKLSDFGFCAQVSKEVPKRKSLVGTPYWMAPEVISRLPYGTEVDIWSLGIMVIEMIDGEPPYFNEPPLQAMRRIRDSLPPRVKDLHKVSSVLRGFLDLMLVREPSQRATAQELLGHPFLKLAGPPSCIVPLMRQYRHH
Procedure: as §1

[21] = target: PDK1 (Homo sapiens, UniProt O15530); conditions: 0.1 µM compound, assay duplicates; read-out: residual activity of PDK1, mean percentage activity
Procedure: as §1

[22] = target: PIM1 (Homo sapiens, UniProt P11309); conditions: 0.1 µM compound, assay duplicates; read-out: residual activity of PIM1, mean percentage activity
Chain of PIM1 (P11309 whole entry): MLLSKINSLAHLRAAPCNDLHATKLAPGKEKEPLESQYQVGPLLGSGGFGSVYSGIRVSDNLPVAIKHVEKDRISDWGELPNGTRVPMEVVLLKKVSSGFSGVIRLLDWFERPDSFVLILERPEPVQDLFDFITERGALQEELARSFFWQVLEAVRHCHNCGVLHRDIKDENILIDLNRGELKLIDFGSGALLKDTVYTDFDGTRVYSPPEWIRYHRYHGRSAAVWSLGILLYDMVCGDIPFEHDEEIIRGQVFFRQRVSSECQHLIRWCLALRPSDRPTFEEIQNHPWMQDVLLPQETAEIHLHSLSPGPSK
Procedure: as §1

[23] = target: PKBa (Homo sapiens, UniProt P31749); conditions: 0.1 µM compound, assay duplicates; read-out: residual activity of PKBa, mean percentage activity
Chain of PKBa (P31749 whole entry): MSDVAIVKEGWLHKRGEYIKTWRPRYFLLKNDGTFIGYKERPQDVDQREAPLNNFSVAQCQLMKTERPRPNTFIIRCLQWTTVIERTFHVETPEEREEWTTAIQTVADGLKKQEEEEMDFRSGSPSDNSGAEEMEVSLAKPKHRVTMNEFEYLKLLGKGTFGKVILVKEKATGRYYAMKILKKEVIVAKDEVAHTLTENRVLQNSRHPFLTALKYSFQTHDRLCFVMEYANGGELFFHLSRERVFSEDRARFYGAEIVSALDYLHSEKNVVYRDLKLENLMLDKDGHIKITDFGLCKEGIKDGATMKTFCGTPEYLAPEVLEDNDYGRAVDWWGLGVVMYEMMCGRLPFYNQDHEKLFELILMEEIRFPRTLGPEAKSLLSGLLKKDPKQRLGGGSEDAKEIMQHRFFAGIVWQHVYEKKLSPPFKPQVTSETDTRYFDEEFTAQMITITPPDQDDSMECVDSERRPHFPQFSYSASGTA
Procedure: as §1

[24] = target: PKCa (Homo sapiens, UniProt P17252); conditions: 0.1 µM compound, assay duplicates; read-out: residual activity of PKCa, mean percentage activity
Procedure: as §1

[25] = target: PRAK (Homo sapiens, UniProt Q8IW41); conditions: 0.1 µM compound, assay duplicates; read-out: residual activity of PRAK, mean percentage activity
Chain of PRAK (Q8IW41 whole entry): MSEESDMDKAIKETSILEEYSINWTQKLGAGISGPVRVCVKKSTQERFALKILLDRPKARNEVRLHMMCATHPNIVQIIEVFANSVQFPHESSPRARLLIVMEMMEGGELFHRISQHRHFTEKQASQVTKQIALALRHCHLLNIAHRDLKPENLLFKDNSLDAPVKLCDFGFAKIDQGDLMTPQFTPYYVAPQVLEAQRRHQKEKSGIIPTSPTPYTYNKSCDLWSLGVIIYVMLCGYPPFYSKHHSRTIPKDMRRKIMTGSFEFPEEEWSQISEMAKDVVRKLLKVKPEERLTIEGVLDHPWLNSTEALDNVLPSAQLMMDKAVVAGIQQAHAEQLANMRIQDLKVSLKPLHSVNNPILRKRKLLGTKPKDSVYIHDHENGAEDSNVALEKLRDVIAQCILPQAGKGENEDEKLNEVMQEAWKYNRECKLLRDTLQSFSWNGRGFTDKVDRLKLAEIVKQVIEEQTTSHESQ
Procedure: as §1

[26] = target: RSK1 (Homo sapiens, UniProt Q15418); conditions: 0.1 µM compound, assay duplicates; read-out: residual activity of RSK1, mean percentage activity
Procedure: as §1

[27] = target: SGK1 (Homo sapiens, UniProt O00141); conditions: 0.1 µM compound, assay duplicates; read-out: residual activity of SGK1, mean percentage activity
Chain of SGK1 (O00141 whole entry): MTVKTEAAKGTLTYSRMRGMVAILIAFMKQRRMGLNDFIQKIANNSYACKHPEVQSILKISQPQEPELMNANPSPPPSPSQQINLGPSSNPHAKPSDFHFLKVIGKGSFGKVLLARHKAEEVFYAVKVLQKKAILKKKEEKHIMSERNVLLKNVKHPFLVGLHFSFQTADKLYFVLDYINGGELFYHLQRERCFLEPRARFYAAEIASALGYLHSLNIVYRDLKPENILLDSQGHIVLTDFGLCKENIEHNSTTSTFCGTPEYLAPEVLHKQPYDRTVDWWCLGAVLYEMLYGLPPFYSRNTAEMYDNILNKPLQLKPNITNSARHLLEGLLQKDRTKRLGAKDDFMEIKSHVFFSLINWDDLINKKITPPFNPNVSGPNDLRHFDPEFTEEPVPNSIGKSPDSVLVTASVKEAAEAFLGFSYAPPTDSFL
Procedure: as §1

[28] = target: YES1 (Homo sapiens, UniProt P07947); conditions: 0.1 µM compound, assay duplicates; read-out: residual activity of YES1, mean percentage activity
Procedure: as §1

## COc1cc(C2=C(c3c[nH]c4ccccc34)C(=O)NC2=O)cc(OC)c1OC [Compound 1, 3-(1H-Indol-3-yl)-4-(3,4,5-trimethoxyphenyl)-1H-pyrrole-2,5-dione]
[1]
  remaining activity at 0.1 µM: 59%
[2]
  remaining activity at 0.1 µM: 72%
[3]
  remaining activity at 0.1 µM: 73%
[4]
  remaining activity at 0.1 µM: 104%
[5]
  remaining activity at 0.1 µM: 94%
[6]
  remaining activity at 0.1 µM: 69%
[7]
  remaining activity at 0.1 µM: 85%
[8]
  remaining activity at 0.1 µM: 80%
[9]
  remaining activity at 0.1 µM: 96%
[10]
  remaining activity at 0.1 µM: 74%
[11]
  remaining activity at 0.1 µM: 54%
[12]
  remaining activity at 0.1 µM: 80%
[13]
  remaining activity at 0.1 µM: 90%
[14]
  remaining activity at 0.1 µM: 69%
[15]
  remaining activity at 0.1 µM: 53%
[16]
  remaining activity at 0.1 µM: 94%
[17]
  remaining activity at 0.1 µM: 87%
[18]
  remaining activity at 0.1 µM: 96%
[19]
  remaining activity at 0.1 µM: 86%
[20]
  remaining activity at 0.1 µM: 105%
[21]
  remaining activity at 0.1 µM: 68%
[22]
  remaining activity at 0.1 µM: 14%
[23]
  remaining activity at 0.1 µM: 66%
[24]
  remaining activity at 0.1 µM: 113%
[25]
  remaining activity at 0.1 µM: 91%
[26]
  remaining activity at 0.1 µM: 96%
[27]
  remaining activity at 0.1 µM: 75%
[28]
  remaining activity at 0.1 µM: 84%

## COc1cc2c3c(c4c5ccccc5[nH]c4c2c(OC)c1OC)C(=O)NC3=O [Compound 3, 5,6,7-Trimethoxybenzo[a]pyrrolo[3,4-c]carbazole-1,3(2H,8H)-dione]
[1]
  remaining activity at 0.1 µM: 28%
[2]
  remaining activity at 0.1 µM: 34%
[3]
  remaining activity at 0.1 µM: 26%
[4]
  remaining activity at 0.1 µM: 109%
[5]
  remaining activity at 0.1 µM: 93%
[6]
  remaining activity at 0.1 µM: 92%
[7]
  remaining activity at 0.1 µM: 94%
[8]
  remaining activity at 0.1 µM: 63%
[9]
  remaining activity at 0.1 µM: 96%
[10]
  remaining activity at 0.1 µM: 55%
[11]
  remaining activity at 0.1 µM: 67%
[12]
  remaining activity at 0.1 µM: 79%
[13]
  remaining activity at 0.1 µM: 81%
[14]
  remaining activity at 0.1 µM: 55%
[15]
  remaining activity at 0.1 µM: 24%
[16]
  remaining activity at 0.1 µM: 69%
[17]
  remaining activity at 0.1 µM: 91%
[18]
  remaining activity at 0.1 µM: 104%
[19]
  remaining activity at 0.1 µM: 89%
[20]
  remaining activity at 0.1 µM: 84%
[21]
  remaining activity at 0.1 µM: 39%
[22]
  remaining activity at 0.1 µM: 5%
[23]
  remaining activity at 0.1 µM: 81%
[24]
  remaining activity at 0.1 µM: 90%
[25]
  remaining activity at 0.1 µM: 85%
[26]
  remaining activity at 0.1 µM: 51%
[27]
  remaining activity at 0.1 µM: 52%
[28]
  remaining activity at 0.1 µM: 88%
